Laboratory results taken from PubChem BioAssay AID1054 (Sanford-Burnham Center for Chemical Genomics, 2008).
“And” between values parts separate entries of the source, which are not always exact repeats. Equal values may be shown once. The source made the active and inactive calls. No rule for the calls is given here.

Biological target: Dual specificity protein phosphatase 6 (Rattus norvegicus) (UniProt Q64346)
Test: DUSP6 phosphatase inhibition, redox-sensitive – biochemical, rat enzyme, secondary assay (AID 1054)
Details: recombinant MKP-3 phosphatase activity, redox-state secondary assay

Sequence of Dual specificity protein phosphatase 6 (Rattus norvegicus) (Q64346 whole entry, looked up): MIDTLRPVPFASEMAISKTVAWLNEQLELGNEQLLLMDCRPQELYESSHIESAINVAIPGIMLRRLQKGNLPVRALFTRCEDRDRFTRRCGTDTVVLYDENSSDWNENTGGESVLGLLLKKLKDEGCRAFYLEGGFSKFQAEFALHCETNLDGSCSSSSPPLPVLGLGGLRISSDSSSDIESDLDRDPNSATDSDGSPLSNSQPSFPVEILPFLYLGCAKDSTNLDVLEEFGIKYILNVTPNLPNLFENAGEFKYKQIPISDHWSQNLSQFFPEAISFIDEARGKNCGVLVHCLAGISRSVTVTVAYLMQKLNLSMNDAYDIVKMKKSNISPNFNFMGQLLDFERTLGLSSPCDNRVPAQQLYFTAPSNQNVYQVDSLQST

Structure (SMILES)	IC50
CCCn1c(=O)nc(NCCc2ccccc2)[nH]c1=O	> 100 µM (inactive)
CCN1CCN(C(=S)c2ccc(O)c(OC)c2)CC1	> 100 µM (inactive)
Cc1ccc2c(c1C)NC(C(=O)O)C1CC=CC21 (stereo unspecified)	5.96 µM
O=S(=O)(O)c1ccc2cc(N=Nc3cc(S(=O)(=O)O)c4cccnc4c3O)ccc2c1	4.19 µM
COc1cc(C(=S)NCc2ccc(Cl)c(C)c2)ccc1O	10.5 µM
Cc1cc(NC(=O)CCc2ccc(C)o2)no1	> 100 µM (inactive)
O=C(O)C1Nc2cc(Cl)cc(Cl)c2C2C=CCC12 (stereo unspecified)	> 100 µM (inactive)
CCOC(=O)C1=C(C)N=c2sc(=Cc3ccc(OCC(=O)O)cc3)c(=O)n2C1c1ccc(SC)cc1 (stereo unspecified)	9.08 µM
Cc1ccc2c(c1)C1C=CCC1C(C(=O)O)N2 (stereo unspecified)	7.92 µM
CCOC(=O)C1=C(C)N=c2s/c(=C/c3cc(Cl)c(OCC(=O)O)c(OC)c3)c(=O)n2C1c1ccccc1Cl (stereo unspecified)	9.75 µM
O=C(O)C1Nc2c(cccc2C(F)(F)F)C2C=CCC12 (stereo unspecified)	7.72 µM
O=C(O)C1Nc2c(F)cccc2C2C=CCC12 (stereo unspecified)	17.2 µM
O=C(O)c1ccc2c(c1)C1C=CCC1C(C(=O)O)N2 (stereo unspecified)	15.5 µM
CCCCOC(=O)c1ccc2c(c1)C1C=CCC1C(C(=O)O)N2 (stereo unspecified)	4.02 µM
O=C(O)[C@@H](O)c1ccccc1	> 100 µM (inactive)
O=C(Oc1ccc2ccccc2c1)c1ccc2c(c1)C1C=CCC1C(C(=O)O)N2 (stereo unspecified)	24.7 µM
CCCCCc1nnc(NC(=O)Cc2cccs2)s1	17.2 µM
CCC(CC)c1nnc(NC(=O)Cc2cccs2)s1	> 100 µM (inactive)
COc1cc(C(=S)NCc2ccccc2)ccc1O	4.46 µM
CCOC(=O)C1=C(C)N=c2s/c(=C\c3cc(Cl)c(OCC(=O)O)c(Cl)c3)c(=O)n2C1c1cccc(OC)c1 (stereo unspecified)	9.64 µM
O=C(Oc1ccc2c(c1)C1C=CCC1C(C(=O)O)N2)c1ccc(Cl)cc1Cl (stereo unspecified)	15.6 µM
Cc1ccc(C)c2c1NC(C(=O)O)C1CC=CC21 (stereo unspecified)	> 100 µM (inactive)
COc1cc(C(=S)N2CCCC2)ccc1O	> 100 µM (inactive)

Structure (SMILES)	IC50
CCn1c(=O)n(Cc2ccc(N(O)O)cc2)c(=O)n([C@@H](Cc2ccccc2)C(=O)O)c1=O	> 100 µM (inactive)
CCCn1c(=O)nc(NCc2ccccc2OC)[nH]c1=O	> 100 µM (inactive)
NC(=O)c1cccc2c1NC(C(=O)O)C1CC=CC21 (stereo unspecified)	55.5 µM
O=C(O)c1ccc([N+](=O)[O-])c2c1NC(C(=O)O)C1CC=CC21 (stereo unspecified)	> 100 µM (inactive)
O=C(O)C1Nc2c(O)cc(Cl)c([N+](=O)[O-])c2C2C=CCC12 (stereo unspecified)	35.4 µM
COc1cc(C(=S)NCc2ccc(F)c(C(F)(F)F)c2)ccc1O	1.5 µM
Clc1ccccc1CSc1nnc(-c2ccco2)c(-c2ccco2)n1	24.2 µM
COc1ccc(-n2c(=O)nc(NCCc3cccc(Cl)c3)[nH]c2=O)cc1	> 100 µM (inactive)
Cc1cc(O)c2c(c1)C1C=CCC1C(C(=O)O)N2 (stereo unspecified)	> 100 µM (inactive)
Cc1cc2nc3s/c(=C/c4ccc(-c5ccccc5C(=O)O)o4)c(=O)n3c2cc1C	14.8 µM
Cc1cc(C)c2c(c1)NC(C(=O)O)C1CC=CC21 (stereo unspecified)	46.1 µM
Cc1ccc(O)c2c1C1C=CCC1C(C(=O)O)N2 (stereo unspecified)	86.4 µM
CCCCCCCCCCCCCCCCCCC#CCCCCCCCC(=O)O	> 100 µM (inactive)
O=c1/c(=C/c2ccc(-c3cc(Cl)cc(Cl)c3)o2)sc2nc3cc(Br)cnc3n12	14.8 µM
CC(C)[C@@H](C(N)=O)n1c(=O)[nH]c(=O)n(-c2ccc(Cl)cc2)c1=O	> 100 µM (inactive)
O=C(O)C1Nc2ccc([N+](=O)[O-])cc2C2C=CCC12 (stereo unspecified)	47.5 µM
COc1cc(C(=S)N2CCCCC2)ccc1O	13.5 µM and 10.7 µM
CCCCCCCCC#CC#CCCCC(=O)O	> 100 µM (inactive)
Cc1cc2ccccn2c1C(=O)C(=O)O	> 100 µM (inactive)
O=C(O)C1Nc2c(Cl)cc(Cl)cc2C2C=CCC12 (stereo unspecified)	53 µM
O=C(O)[C@H](O)c1ccccc1	> 100 µM (inactive)
Cc1ccc(CC(=O)Nc2cc(C)on2)cc1	> 100 µM (inactive)
CCOC(=O)C1Nc2c(O)cc(C)cc2C2C=CCC12 (stereo unspecified)	> 100 µM (inactive)

Structure (SMILES)	IC50
Cc1ccc2c(c1)NC(C(=O)O)NS2(=O)=O (stereo unspecified)	56.9 µM
COc1cccc2c1NC(C(=O)O)C1CC=CC21 (stereo unspecified)	23.1 µM and 13.1 µM
Cc1ccc(C)n1C(Cc1ccccc1)C(=O)O (stereo unspecified)	> 100 µM (inactive)
Cn1c(=O)n(CC(N)=O)c(=O)n(-c2ccccc2)c1=O	> 100 µM (inactive)
NS(=O)(=O)c1ccc2c(c1)C1C=CCC1C(C(=O)O)N2 (stereo unspecified)	> 100 µM (inactive)
NC(=O)[C@H](Cc1ccccc1)n1c(=O)n(Cc2ccc(Br)cc2)c(=O)n(-c2ccccc2)c1=O	> 100 µM (inactive)
COc1ccc2c(c1)C1C=CCC1C(C(=O)O)N2 (stereo unspecified)	32 µM
CCn1c(SCC(=O)O)nc2sc3c(c2c1=O)CCCC3	> 100 µM (inactive)
Cc1cc(NC(=O)c2cccs2)no1	> 100 µM (inactive)
O=C(O)C1Nc2c(cccc2N2CCOCC2)C2C=CCC12 (stereo unspecified)	60.1 µM
CCOC(=O)C1=C(c2ccccc2)N=c2sc(=Cc3cc(OC)c(OC)c(OC)c3)c(=O)n2C1c1cccs1 (stereo unspecified)	> 50 µM (inactive)
CCCCCCCCCCCCCCCCCCC#CCCCCCCCCCCC(=O)O	> 100 µM (inactive)
CCn1c(=O)n(Cc2ccccc2C)c(=O)n([C@@H](Cc2ccccc2)C(=O)O)c1=O	> 100 µM (inactive)
CCN(CC)C(=S)c1ccc(O)c(OC)c1	86.6 µM
O=C(O)C1Nc2ccc(Br)cc2C2C=CCC12 (stereo unspecified)	12.3 µM
COc1cc(C(=S)NCc2ccc(C)cc2C)ccc1O	2.12 µM
O=C(O)C1Nc2c(I)cccc2C2C=CCC12 (stereo unspecified)	> 100 µM (inactive)
C[C@@H](C(N)=O)n1c(=O)n(Cc2ccccc2)c(=O)n(-c2ccccc2)c1=O	> 100 µM (inactive)
Cn1c(=O)n(-c2ccc(Cl)cc2)c(=O)n([C@@H](Cc2ccccc2)C(N)=O)c1=O	> 100 µM (inactive)
COc1cc(C(=S)NC2CCCCC2)ccc1O	6.35 µM
O=C(O)C1Nc2c(cccc2S(=O)(=O)c2ccccc2)C2C=CCC12 (stereo unspecified)	58.7 µM
O=C(O)c1ccccc1-c1ccc(/C=c2\sc3nc4cc(Br)cnc4n3c2=O)o1	3.11 µM
COc1cc(C(=S)NCc2ccc(F)c(C)c2)ccc1O	7.53 µM

Structure (SMILES)	IC50
O=c1/c(=C/c2ccc(-c3ccccc3[N+](=O)[O-])o2)sc2nc3cc(Br)cnc3n12	29.8 µM
c1ccc(CSc2nnc(-c3ccco3)c(-c3ccco3)n2)cc1	24.2 µM
COc1cc(C(=S)N2CCC(C)CC2)ccc1O	32.8 µM
O=C(O)c1ccc(N2C(=O)c3ccccc3C2=O)cc1	> 100 µM (inactive)
COc1ccc(N2Cc3cccc(C(=O)O)c3C2=O)cc1	> 100 µM (inactive)
CCCCCCCCCCCCCCCCCCC#CCCCCCCCCCCCC(=O)O	> 100 µM (inactive)
O=C(Oc1ccc(-c2ccccc2)cc1)c1cccc2c1NC(C(=O)O)C1CC=CC21 (stereo unspecified)	3.5 µM
O=C(O)C(O)c1ccccc1 (stereo unspecified)	> 100 µM (inactive)
CCCCCC#CCC#CCC#CCC#CCCCC(=O)O	30.4 µM
Cn1c(SCC(=O)O)nc2sc3c(c2c1=O)CCC3	> 100 µM (inactive)
Cc1cc(NC(=O)/C=C/c2cccs2)no1	> 100 µM (inactive)
O=c1/c(=C/c2ccccc2Cl)sc2nc3cc(Br)cnc3n12	2.5 µM
CCOC(=O)C1Nc2c(O)ccc(C)c2C2C=CCC12 (stereo unspecified)	> 100 µM (inactive)
Cc1ccccc1Cn1c(=O)n(-c2ccccc2)c(=O)n([C@H](C(=O)O)C(C)C)c1=O	> 100 µM (inactive)
O=c1/c(=C/c2cccc(Br)c2)sc2nc3cc(Br)cnc3n12	> 100 µM (inactive)
O=c1/c(=C/c2ccco2)sc2nc3cc(Br)cnc3n12	4.56 µM
CC1=C(C(=O)OC(C)C)C(c2ccc(Cl)cc2)n2c(sc(=Cc3ccc(OCC(=O)O)cc3)c2=O)=N1 (stereo unspecified)	10.1 µM
COC(=O)c1ccccc1OC(=O)c1ccc2c(c1)C1C=CCC1C(C(=O)O)N2 (stereo unspecified)	17.2 µM
O=C(O)c1ccc(-c2ccc(/C=c3\sc4nc5ccccc5n4c3=O)o2)cc1	6.59 µM
COc1cc(C(=S)NC(C)(C)C)ccc1O	> 100 µM (inactive)
COCCCNc1nc(=O)n(-c2ccc(C)cc2)c(=O)[nH]1	> 100 µM (inactive)
CCOc1cc2c(c([N+](=O)[O-])c1)NC(C(=O)O)C1CC=CC21 (stereo unspecified)	> 100 µM (inactive)
O=C1CC(=O)N(Cc2ccco2)C(=O)N1	> 100 µM (inactive)

Structure (SMILES)	IC50
CCOC(=O)c1ccccc1OC(=O)c1ccc2c(c1)C1C=CCC1C(C(=O)O)N2 (stereo unspecified)	6.01 µM
O=C(O)C1Nc2c(Cl)cc(Cl)c(Cl)c2C2C=CCC12 (stereo unspecified)	12 µM
Cc1ccc2c(c1Cl)NC(C(=O)O)C1CC(Sc3ccccc3[N+](=O)[O-])C(Cl)C21 (stereo unspecified)	42.6 µM
COc1cc(C(=S)NCc2ccc(O)cc2)ccc1O	16.1 µM
Cc1ccc2c(nc3s/c(=C\c4ccc(-c5ccccc5C(=O)O)o4)c(=O)n32)c1C	21.6 µM
O=c1nc(NCCc2ccccc2)[nH]c(=O)n1-c1ccccc1	> 100 µM (inactive)
Cc1ccc(-n2c(=O)[nH]c(=O)n([C@H](C(N)=O)C(C)C)c2=O)cc1	> 100 µM (inactive)
Cn1c(=O)n(-c2ccccc2)c(=O)n([C@@H](Cc2ccccc2)C(N)=O)c1=O	> 100 µM (inactive)
Cc1cc(NC(=O)Cc2cccs2)no1	13.1 µM
CCn1c(=O)n(CC)c(=O)n([C@@H](Cc2ccccc2)C(=O)O)c1=O	> 100 µM (inactive)
O=C1c2ccccc2CC1Sc1nnc(-c2ccco2)c(-c2ccco2)n1 (stereo unspecified)	42 µM
C#CCCCCCCCCCCCCCCCCCC	> 100 µM (inactive)
CCCCCCn1c(=O)nc(NCc2ccccc2OC)[nH]c1=O	> 100 µM (inactive)
CCOC(=O)C1Nc2c(O)cccc2C2C=CCC12 (stereo unspecified)	> 100 µM (inactive)
CC(=O)Nc1ccc2c(c1)C1C=CCC1C(C(=O)O)N2 (stereo unspecified)	> 100 µM (inactive)
Cc1cc(C)c2c(c1)C1C=CCC1C(C(=O)O)N2 (stereo unspecified)	> 100 µM (inactive)
CCCn1c(=O)nc(NCc2ccc(C)cc2)[nH]c1=O	> 100 µM (inactive)
O=C(Cc1cccs1)Nc1ccon1	> 100 µM (inactive)
CC(C)COC(=O)c1ccc2c(c1)C1C=CCC1C(C(=O)O)N2 (stereo unspecified)	55.8 µM
